# Source: publication PMC11487390, “Design and Synthesis of 1,3-Diarylpyrazoles and Investigation of Their Cytotoxicity and Antiparasitic Profile” (International Journal of Molecular Sciences, 2024)
# Counter-ions that a name gives are not always drawn. Like-named read-outs stand apart in the source and are kept apart here.
# What was measured:
# [1] = test system: L. infantum MHOM/MA(BE)/67 strain; assay: L. infantum intracellular amastigote assay in PMM (Giemsa, 5 days); assay type: cell-based, Leishmania infantum
# Protocol: (§1) The MRC-5SV2 human lung fibroblast cell line was cultured in MEM + Earle’s salts-medium, supplemented with 2 mM L-glutamine, 16.5 mM NaHCO3, and 5% inactivated fetal calf serum. For evaluating the antileishmanial activity, the L. infantum MHOM/MA(BE)/67 strain was used. This strain was maintained in a Golden hamster (Mesocricetus auratus). Amastigotes were collected from the spleen of an infected donor hamster using differential centrifugation. Primary peritoneal mouse macrophages were used as host cells and were collected 2 days after peritoneal stimulation with a 2% potato starch suspension. For the intracellular T. cruzi assays, the Tulahuen CL2 strain was used that expresses β-galactosidase. The strain was maintained in MRC-5SV2 cells in MEM medium. The T. b. brucei Squib 427 strain or T. b. rhodesiense STIB-900 strain was used for screening against the extracellular African trypanosomes. The strains were maintained in Hirumi’s Modified Iscove’s medium-9 (HMI-9), supplemented with 10% inactivated fetal calf serum. All cultures and assays were performed at 37 °C with 5% CO2.
# (§2) Compound stock solutions were prepared in 100% DMSO at 20 mM. The compounds were serially pre-diluted by robotic plate production (4-fold) in DMSO followed by a further (intermediate) dilution in demineralized water to assure a final in-test DMSO concentration of <1%. Identical test plates containing 10 µL of the different concentrations of each compound were produced for the different assays. For the cytotoxicity assays, 5 concentrations per compound were tested (64–16–4–1–0.25 µM). For the parasitic assays, 10 concentrations per compound were tested, ranging from 64 µM to 0.2 nM.
# (§3) Primary peritoneal mouse macrophages (PMMs) were prepared in RPMI-1640 medium, supplemented with 2 mM L-glutamine, 16.5 mM NaHCO3, and 5% inactivated fetal calf serum. The macrophages are infected after 48 h with spleen-derived L. infantum amastigotes (3 × 10^4 PMM + 4.5 × 10^5 parasites/well). The compounds were added after 2 h of infection. After 5 days incubation, parasite burdens (mean number of amastigotes/macrophage) were assessed microscopically after staining with a 10% Giemsa solution and EC50 values were calculated.
# [2] = test system: primary mouse macrophages (PMMs); assay: Cytotoxicity against primary peritoneal mouse macrophages (PMM); assay type: cell-based; details: Macrophage
# Protocol: (§4) The series of final products (13–69) was investigated in vitro on the human fetal lung fibroblast cell line MRC-5 (Table 1) to assess cytotoxicity toward normal (i.e., non-malignant) human cells. […] As explained earlier, these are important pathogens for humans or cattle (T. b. brucei) and a persistent need for new therapeutics exists for these parasites. As a part of the antiparasitic tests, cytotoxicity against primary mouse macrophages (PMMs) was also evaluated. These murine cells serve as host cells for parasites in the L. infantum assay. Therefore, the murine macrophage assay not only offers additional cytotoxicological insight but is also essential to interpreting the readout of the L. infantum assay.
# as §1, §3
# [3] = test system: T. b. rhodesiense STIB-900 strain; assay: T. b. rhodesiense growth assay (resazurin, 3 days); assay type: cell-based, Trypanosoma brucei rhodesiense; details: for EC50: 3 days, read-out: T. b. rhod. (EC50)
# Protocol: as §1, §2
# (§5) Parasite suspensions (1.5 × 10^4 T. b. brucei/well or 4 × 10^3 T. b. rhodesiense/well) in HMI-9 medium were exposed in a total volume of 200 µL to 10 µL of the compound dilutions Parasite growth was assessed fluorimetrically after 3 days of incubation by the addition of 50 µL resazurin per well. After 6 h (T. b. rhodesiense) or 24 h (T. b. brucei) at 37 °C, fluorescence was measured (λex 550 nm, λem 590 nm), from which viability and EC50 values could be determined.
# [4] = test system: T. b. brucei Squib 427 strain; assay: T. b. brucei growth assay (resazurin, 3 days); assay type: cell-based, Trypanosoma brucei brucei; details: 3 days, read-out: T. b. bruc. (EC50)
# Protocol: as §1, §2, §5
# [5] = test system: Trypanosoma cruzi Tulahuen CL2 strain; assay: Intracellular T. cruzi assay in MRC-5 cells (β-galactosidase/CPRG, 7 days); assay type: cell-based; details: intracellular in MRC-5 cells
# Protocol: as §1, §2
# MRC-5 cells were infected in 96-well plates using a harvested T. cruzi inoculum (4 × 10^3 MRC-5 cells/well + 4 × 10^4 parasites/well) and exposed to 10 µL of the compound dilutions (200 µL/well total volume). Parasite growth determined after 7 days of incubation and compared to untreated infected controls following the addition of the substrate CPRG (chlorophenolred ß-D-galactopyranoside): 50 µL/well of a stock solution containing 15.2 mg CPRG + 250 µL Nonidet in 100 mL PBS. The absorbance was measured spectrophotometrically at 540 nm after 4 h incubation at 37 °C and EC50 values were calculated.
# [6] = Cytotoxicity assay, MRC-5SV2 cells, resazurin, 3 days; assay type: cell-based; details: human, MRC-5SV2 human lung fibroblast cells, MRC-5 cells, highest concentration 64 µM
# Protocol: as §4, §1, §2
# Assays were performed in sterile 96-well microtiter plates, each well containing 10 µL of the watery compound dilutions together with 190 µL of MRC-5SV2 inoculum (1.5 × 10^5 cells/mL). Cell growth was compared to untreated control wells (100% cell growth) and medium-control wells (0% cell growth). After 3 days incubation, MRC-5 viability was assessed fluorimetrically after addition of 50 μL resazurin per well (final concentration of 10 µg mL^−1). After 4 h at 37 °C, fluorescence was measured (λex 550 nm, λem 590 nm). The results were expressed as % reduction in cell growth/viability compared to positive (100% growth–0% inhibition) and negative (0% growth–100% inhibition) control wells from which EC50 values (50% effective concentrations) were derived using an excel macro that calculates the interpolation of the concentrations corresponding to the flanking points, just above and just below 50% inhibition.
# [7] = Leishmania infantum, 120 h, amastigotes in PMM, 5 days, read-out: L. inf. (EC50)
# [8] = Trypanosoma brucei, RHODESIENSE, 72 h
# [9] = Trypanosoma cruzi, TULAHUEN, MRC5, 168 h
# [10] = amastigotes in PMM, 5 days, read-out: L. inf. (EC50)
SMILES,"EC50 [1, 7]",EC50 [2],"EC50 [3, 8]","EC50 ([4]; Trypanosoma brucei, 72 h)","EC50 [5, 9]",EC50 at 3 days [6],"EC50 [1, 10]",selectivity index ([3]; T. b. rhodesiense versus cytotoxicity),EC50 [3],EC50 [4],"EC50 ([1]; Leishmania infantum, 120 h, read-out: L. inf. (EC50, µM), amastigotes in PMM, 5 days)","EC50 ([1]; read-out: L. inf. (EC50), amastigotes in PMM, 5 days)",EC50 [5]
"O=C(NCCc1cccnc1)c1cn(-c2ccccc2)nc1-c1ccc2c(c1)OCCO2 [Compound 36, 3-(2,3-dihydrobenzo[b][1,4]dioxin-6-yl)-1-phenyl-N-(2-(pyridin-3-yl)ethyl)-1H-pyrazole-4-carboxamide]",45.2 µM,> 64 µM,4 µM,19.4 µM,4.56 µM,45 µM,–,–,–,–,–,–,–
"O=C(NCc1ccc(F)cc1)c1cn(-c2ccccc2)nc1-c1ccc2c(c1)OCCO2 [Compound 33, 3-(2,3-dihydrobenzo[b][1,4]dioxin-6-yl)-N-(4-fluorobenzyl)-1-phenyl-1H-pyrazole-4-carboxamide]",8.3 µM,> 64 µM,4.23 µM,> 64 µM,> 64 µM,64 µM,9.51 µM,–,–,–,–,–,–
"O=C(c1cn(-c2ccccc2)nc1-c1ccc2c(c1)OCCO2)N1CCOCC1 [Compound 40, (3-(2,3-dihydrobenzo[b][1,4]dioxin-6-yl)-1-phenyl-1H-pyrazol-4-yl)(morpholino)methanone]",> 64 µM,> 64 µM,> 64 µM,> 64 µM,> 64 µM,> 64 µM,–,–,–,–,–,–,–
"CNC(=O)c1cc(Oc2ccc(NCc3cn(-c4ccccc4)nc3-c3ccc4c(c3)OCCO4)cc2)ccn1 [Compound 22, 4-(4-(((3-(2,3-dihydrobenzo[b][1,4]dioxin-6-yl)-1-phenyl-1H-pyrazol-4-yl)methyl)amino)phenoxy)-N-methylpicolinamide]",> 64 µM,> 64 µM,0.74 µM,2.22 µM,> 64 µM,> 64 µM,–,86,–,–,–,–,–
"Fc1ccc(NCc2cn(-c3ccccc3)nc2-c2ccc3c(c2)OCCO3)cc1 [Compound 14, N-((3-(2,3-dihydrobenzo[b][1,4]dioxin-6-yl)-1-phenyl-1H-pyrazol-4-yl)methyl)-4-fluoroaniline]",< 10 µM,> 64 µM,< 10 µM,< 10 µM,–,> 64 µM,6.96 µM,–,6.35 µM,8.18 µM,–,–,–
"O=C(NCCc1ccccn1)c1cn(-c2ccccc2)nc1-c1ccc2c(c1)OCCO2 [Compound 37, 3-(2,3-dihydrobenzo[b][1,4]dioxin-6-yl)-1-phenyl-N-(2-(pyridin-2-yl)ethyl)-1H-pyrazole-4-carboxamide]",> 64 µM,> 64 µM,2.96 µM,20.2 µM,13.1 µM,32 µM,–,–,–,–,–,–,–
"O=C(c1cn(-c2ccccc2)nc1-c1ccc2c(c1)OCCO2)N1CCCC1 [Compound 39, (3-(2,3-dihydrobenzo[b][1,4]dioxin-6-yl)-1-phenyl-1H-pyrazol-4-yl)(pyrrolidin-1-yl)methanone]",38.1 µM,> 64 µM,37.6 µM,> 64 µM,8.8 µM,23.2 µM,–,–,–,–,–,–,–
"O=C(NCCc1ccncc1)c1cn(-c2ccccc2)nc1-c1ccc2c(c1)OCCO2 [Compound 35, 3-(2,3-dihydrobenzo[b][1,4]dioxin-6-yl)-1-phenyl-N-(2-(pyridin-4-yl)ethyl)-1H-pyrazole-4-carboxamide]",> 64 µM,> 64 µM,1.28 µM,23.2 µM,4.33 µM,> 64 µM,–,–,–,–,–,–,–
"O=C(NCc1ccccc1)c1cn(-c2ccccc2)nc1-c1ccc2c(c1)OCCO2 [Compound 32, N-benzyl-3-(2,3-dihydrobenzo[b][1,4]dioxin-6-yl)-1-phenyl-1H-pyrazole-4-carboxamide]",12.7 µM,> 64 µM,4.86 µM,24.1 µM,6.79 µM,> 64 µM,–,–,–,–,–,–,–
"c1ccc(-n2cc(CNCCc3ccccn3)c(-c3ccc4c(c3)OCCO4)n2)cc1 [Compound 21, N-((3-(2,3-dihydrobenzo[b][1,4]dioxin-6-yl)-1-phenyl-1H-pyrazol-4-yl)methyl)-2-(pyridin-2-yl)ethan-1-amine hydrochloride]",–,32 µM,–,–,< 10 µM,29.1 µM,–,–,–,–,< 10 µM,5.06 µM,7.31 µM
